Results as given in ChEMBL document CHEMBL4043156, “Functionalization of peptide nucleolipid bioconjugates and their structure anti-cancer activity relationship studies” (Bioorg Med Chem Lett, 2017).
The source made the active and inactive calls. The rule behind the calls is not given here.

Columns and labels:
MM1.S [1] = experiment: Induction of apoptosis in human MM1S cells at 2.5 uM after 24 hrs by Annexin V-FITC/propidium iodide based FACS analysis; format: functional, cell-based
MM1.S [2] = experiment: Induction of apoptosis in human MM1S cells assessed as increase in necrotic cells at 2.5 uM after 24 hrs by Annexin V-FITC/propidium iodide based FACS analysis; format: functional, cell-based

| Compound | Activity (MM1.S [1]) | Activity (MM1.S [2]) |
| --- | --- | --- |
| CCCCCCCCNCCO[C@H]1C[C@H](n2cc(C)c(=O)[nH]c2=O)O[C@@H]1C(=O)NCCCC[C@@H](NC(=O)[C@@H](C)NC(=O)[C@@H](CCCCN)NC(=O)[C@@H](C)NC(=O)[C@@H](CC(C)C)NC(=O)[C@@H](CCCCN)NC(=O)[C@@H](C)NC(=O)[C@@H](CC(C)C)NC(=O)[C@@H](CCCCN)NC(=O)CCCCCN)C(=O)O | inactive | inactive |
| Cc1cn([C@H]2C[C@H](OCCNCCCNCCCCNCCCN)[C@@H](C(=O)NCCCC[C@@H](NC(=O)[C@@H](C)NC(=O)[C@@H](CCCCN)NC(=O)[C@@H](C)NC(=O)[C@@H](CC(C)C)NC(=O)[C@@H](CCCCN)NC(=O)[C@@H](C)NC(=O)[C@@H](CC(C)C)NC(=O)[C@@H](CCCCN)NC(=O)CCCCCN)C(=O)O)O2)c(=O)[nH]c1=O | inactive | inactive |
| Cc1cn([C@H]2C[C@H](OCCNCc3c[nH]cn3)[C@@H](C(=O)NCCCC[C@@H](NC(=O)[C@@H](C)NC(=O)[C@@H](CCCCN)NC(=O)[C@@H](C)NC(=O)[C@@H](CC(C)C)NC(=O)[C@@H](CCCCN)NC(=O)[C@@H](C)NC(=O)[C@@H](CC(C)C)NC(=O)[C@@H](CCCCN)NC(=O)CCCCCN)C(=O)O)O2)c(=O)[nH]c1=O | Active | Active |
| CNCCO[C@H]1C[C@H](n2cc(C)c(=O)[nH]c2=O)O[C@@H]1C(=O)NCCCC[C@@H](NC(=O)[C@@H](C)NC(=O)[C@@H](CCCCN)NC(=O)[C@@H](C)NC(=O)[C@@H](CC(C)C)NC(=O)[C@@H](CCCCN)NC(=O)[C@@H](C)NC(=O)[C@@H](CC(C)C)NC(=O)[C@@H](CCCCN)NC(=O)CCCCCN)C(=O)O | inactive | inactive |
| Cc1cn([C@H]2C[C@H](OCCNCCCN)[C@@H](C(=O)NCCCC[C@@H](NC(=O)[C@@H](C)NC(=O)[C@@H](CCCCN)NC(=O)[C@@H](C)NC(=O)[C@@H](CC(C)C)NC(=O)[C@@H](CCCCN)NC(=O)[C@@H](C)NC(=O)[C@@H](CC(C)C)NC(=O)[C@@H](CCCCN)NC(=O)CCCCCN)C(=O)O)O2)c(=O)[nH]c1=O | inactive | inactive |
